# Laboratory results from the supplement of paper PMC10307832.
# Experiments:
# Test in all cases: relative viability (nuclei count vs DMSO), 5 days (fraction); higher = more cells survive
# Axitinib + Navitoclax = compound: CNC(=O)c1ccccc1Sc1ccc2c(/C=C/c3ccccn3)n[nH]c2c1 [Axitinib] + CC1(C)CCC(c2ccc(Cl)cc2)=C(CN2CCN(c3ccc(C(=O)NS(=O)(=O)c4ccc(N[C@H](CCN5CCOCC5)CSc5ccccc5)c(S(=O)(=O)C(F)(F)F)c4)cc3)CC2)C1 [Navitoclax] (partner 0.5 µM)
# Summary of the method: (§1)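 Lung cancer cell lines were pin-tool dosed in 1536-well plates on the day after seeding, with either a lone drug or a fixed anchor-drug dose plus five library-drug doses (not always all listed) in √10 steps. Nuclei were counted on 4× images after 5 days. Relative viability is the ratio of treated-well to vehicle-well nuclei counts, with each value a median of duplicate plates.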
# [1] = compound: CC1=CC=C(C=C1)C(=O)CN2C3=C(CCCC3)SC2=N [Pifithrin_alpha] + Cc1nc(Nc2ncc(C(=O)Nc3c(C)cccc3Cl)s2)cc(N2CCN(CCO)CC2)n1 [Dasatinib] (partner 0.075 µM)
# Summary of the method: as §1
# Axitinib + Palbociclib = compound: CNC(=O)c1ccccc1Sc1ccc2c(/C=C/c3ccccn3)n[nH]c2c1 [Axitinib] + CC(=O)c1c(C)c2cnc(Nc3ccc(N4CCNCC4)cn3)nc2n(C2CCCC2)c1=O [Palbociclib] (partner 0.5 µM)
# Summary of the method: as §1
# Axitinib + Pemetrexed = compound: CNC(=O)c1ccccc1Sc1ccc2c(/C=C/c3ccccn3)n[nH]c2c1 [Axitinib] + Nc1nc2[nH]cc(CCc3ccc(C(=O)N[C@@H](CCC(=O)O)C(=O)O)cc3)c2c(=O)[nH]1 [Pemetrexed] (partner 0.2 µM)
# Summary of the method: as §1
Cell Line,relative viability (Axitinib + Navitoclax; first compound 0.005 µM),relative viability (Axitinib + Navitoclax; first compound 0.01581 µM),relative viability (Axitinib + Navitoclax; first compound 0.05 µM),relative viability (Axitinib + Navitoclax; first compound 0.1581 µM),relative viability (Axitinib + Navitoclax; first compound 0.5 µM),relative viability ([1]; first compound 1 µM),relative viability ([1]; first compound 3.162 µM),relative viability ([1]; first compound 10 µM),relative viability ([1]; first compound 31.62 µM),relative viability ([1]; first compound 100 µM),relative viability (Axitinib + Palbociclib; first compound 0.005 µM),relative viability (Axitinib + Palbociclib; first compound 0.01581 µM),relative viability (Axitinib + Palbociclib; first compound 0.05 µM),relative viability (Axitinib + Palbociclib; first compound 0.1581 µM),relative viability (Axitinib + Palbociclib; first compound 0.5 µM),relative viability (Axitinib + Pemetrexed; first compound 0.005 µM),relative viability (Axitinib + Pemetrexed; first compound 0.01581 µM),relative viability (Axitinib + Pemetrexed; first compound 0.05 µM),relative viability (Axitinib + Pemetrexed; first compound 0.1581 µM),relative viability (Axitinib + Pemetrexed; first compound 0.5 µM)
LU99A,0.858,0.805,0.83,0.773,0.902,0.385,0.651,0.609,0.369,0.583,0.408,0.416,0.394,0.438,0.417,0.196,0.203,0.182,0.175,0.204
NCI-H358,–,–,–,–,–,0.165,0.169,0.187,0.181,0.16,0.17,0.159,0.143,0.129,0.13,0.166,0.154,0.182,0.173,0.181
NCI-H522,–,–,–,–,–,0.972,0.887,0.779,0.757,0.816,0.892,0.966,1.01,1.05,0.915,1.22,1.14,1.07,1.07,0.944
NCI-H596,0.979,0.859,1.04,0.847,0.969,0.54,0.588,0.583,0.494,0.503,–,–,–,–,–,0.517,0.483,0.676,0.533,0.433
NCI-H661,–,–,–,–,–,0.967,0.842,0.801,0.62,0.76,0.412,0.392,0.424,0.405,0.428,0.885,0.916,0.902,0.942,0.956
NCI-H727,0.582,0.466,0.454,0.451,0.61,0.357,0.421,0.394,–,0.346,0.597,0.66,0.596,0.673,0.613,–,–,–,–,–
NCI-H1299,1.14,1.04,1.07,1.04,1.07,–,–,–,–,–,–,–,–,–,–,–,–,–,–,–
NCI-H1563,–,–,–,–,–,0.406,0.478,0.369,0.442,0.44,–,–,–,–,–,0.844,0.716,0.917,0.729,0.721
NCI-H1623,–,–,–,–,–,0.463,0.603,0.523,0.56,0.448,–,–,–,–,–,–,–,–,–,–
NCI-H1648,–,–,–,–,–,–,–,–,–,–,0.215,0.291,0.219,0.273,0.235,0.726,0.764,0.702,0.958,0.758
NCI-H1703,0.868,0.36,0.306,0.212,0.305,–,–,–,–,–,–,–,–,–,–,–,–,–,–,–
NCI-H2342,–,–,–,–,–,0.255,0.316,0.317,0.31,0.31,0.503,0.524,0.536,0.614,0.485,0.753,0.792,0.707,0.782,0.669
SW 900,–,–,–,–,–,0.366,0.487,0.318,0.349,0.307,0.629,–,0.587,0.502,0.6,0.479,–,0.469,0.505,0.479
